For test [1], the target named is T1, Ephrin type-B receptor 4 (Homo sapiens) (UniProt P54760).
T1 sequence (whole entry): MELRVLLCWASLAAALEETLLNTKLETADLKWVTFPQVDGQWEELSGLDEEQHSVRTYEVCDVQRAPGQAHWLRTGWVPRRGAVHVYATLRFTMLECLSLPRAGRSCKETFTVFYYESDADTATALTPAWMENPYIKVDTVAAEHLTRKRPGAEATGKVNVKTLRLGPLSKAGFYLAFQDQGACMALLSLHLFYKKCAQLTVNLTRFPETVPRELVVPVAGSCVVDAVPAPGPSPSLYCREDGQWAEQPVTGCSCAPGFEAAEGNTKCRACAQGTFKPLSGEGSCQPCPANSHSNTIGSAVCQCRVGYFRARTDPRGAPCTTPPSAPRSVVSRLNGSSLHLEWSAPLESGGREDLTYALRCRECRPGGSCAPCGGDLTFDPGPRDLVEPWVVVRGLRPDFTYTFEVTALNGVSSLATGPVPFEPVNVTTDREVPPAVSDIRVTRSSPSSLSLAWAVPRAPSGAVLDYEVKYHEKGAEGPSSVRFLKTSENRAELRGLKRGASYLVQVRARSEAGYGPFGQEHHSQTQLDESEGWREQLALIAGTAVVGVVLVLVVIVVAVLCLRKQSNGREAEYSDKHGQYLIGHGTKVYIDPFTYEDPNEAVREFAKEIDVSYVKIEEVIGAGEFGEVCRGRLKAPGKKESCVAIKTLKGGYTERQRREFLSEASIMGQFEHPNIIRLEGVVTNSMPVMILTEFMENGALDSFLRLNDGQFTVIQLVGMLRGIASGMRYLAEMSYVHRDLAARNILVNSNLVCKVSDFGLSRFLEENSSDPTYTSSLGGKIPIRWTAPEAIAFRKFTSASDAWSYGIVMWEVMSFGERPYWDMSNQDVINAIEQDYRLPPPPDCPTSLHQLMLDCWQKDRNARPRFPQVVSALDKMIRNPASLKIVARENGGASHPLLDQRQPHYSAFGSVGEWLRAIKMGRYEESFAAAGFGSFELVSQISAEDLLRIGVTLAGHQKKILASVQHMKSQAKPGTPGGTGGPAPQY
Kind of test: Selectivity interaction (ProQinase) EUB0000171b EPHB4.

Test [2] has as its system Mast/stem cell growth factor receptor Kit (Homo sapiens), P10721 [D816H]. Particulars: at 10 µM.
Test [3] concerns the target Ribosomal protein S6 kinase beta-1 (Homo sapiens, UniProt P23443). Description: Selectivity interaction (KinomeScan (DiscoverX)) EUB0000655a RPS6KB1. Particulars: at 10 µM.
The target of test [4] is Myosin light chain kinase, smooth muscle (Homo sapiens, UniProt Q15746). Kind of test: Selectivity interaction (KinomeScan (DiscoverX)) EUB0000045b MYLK.
Chain of Myosin light chain kinase, smooth muscle (Q15746 whole entry): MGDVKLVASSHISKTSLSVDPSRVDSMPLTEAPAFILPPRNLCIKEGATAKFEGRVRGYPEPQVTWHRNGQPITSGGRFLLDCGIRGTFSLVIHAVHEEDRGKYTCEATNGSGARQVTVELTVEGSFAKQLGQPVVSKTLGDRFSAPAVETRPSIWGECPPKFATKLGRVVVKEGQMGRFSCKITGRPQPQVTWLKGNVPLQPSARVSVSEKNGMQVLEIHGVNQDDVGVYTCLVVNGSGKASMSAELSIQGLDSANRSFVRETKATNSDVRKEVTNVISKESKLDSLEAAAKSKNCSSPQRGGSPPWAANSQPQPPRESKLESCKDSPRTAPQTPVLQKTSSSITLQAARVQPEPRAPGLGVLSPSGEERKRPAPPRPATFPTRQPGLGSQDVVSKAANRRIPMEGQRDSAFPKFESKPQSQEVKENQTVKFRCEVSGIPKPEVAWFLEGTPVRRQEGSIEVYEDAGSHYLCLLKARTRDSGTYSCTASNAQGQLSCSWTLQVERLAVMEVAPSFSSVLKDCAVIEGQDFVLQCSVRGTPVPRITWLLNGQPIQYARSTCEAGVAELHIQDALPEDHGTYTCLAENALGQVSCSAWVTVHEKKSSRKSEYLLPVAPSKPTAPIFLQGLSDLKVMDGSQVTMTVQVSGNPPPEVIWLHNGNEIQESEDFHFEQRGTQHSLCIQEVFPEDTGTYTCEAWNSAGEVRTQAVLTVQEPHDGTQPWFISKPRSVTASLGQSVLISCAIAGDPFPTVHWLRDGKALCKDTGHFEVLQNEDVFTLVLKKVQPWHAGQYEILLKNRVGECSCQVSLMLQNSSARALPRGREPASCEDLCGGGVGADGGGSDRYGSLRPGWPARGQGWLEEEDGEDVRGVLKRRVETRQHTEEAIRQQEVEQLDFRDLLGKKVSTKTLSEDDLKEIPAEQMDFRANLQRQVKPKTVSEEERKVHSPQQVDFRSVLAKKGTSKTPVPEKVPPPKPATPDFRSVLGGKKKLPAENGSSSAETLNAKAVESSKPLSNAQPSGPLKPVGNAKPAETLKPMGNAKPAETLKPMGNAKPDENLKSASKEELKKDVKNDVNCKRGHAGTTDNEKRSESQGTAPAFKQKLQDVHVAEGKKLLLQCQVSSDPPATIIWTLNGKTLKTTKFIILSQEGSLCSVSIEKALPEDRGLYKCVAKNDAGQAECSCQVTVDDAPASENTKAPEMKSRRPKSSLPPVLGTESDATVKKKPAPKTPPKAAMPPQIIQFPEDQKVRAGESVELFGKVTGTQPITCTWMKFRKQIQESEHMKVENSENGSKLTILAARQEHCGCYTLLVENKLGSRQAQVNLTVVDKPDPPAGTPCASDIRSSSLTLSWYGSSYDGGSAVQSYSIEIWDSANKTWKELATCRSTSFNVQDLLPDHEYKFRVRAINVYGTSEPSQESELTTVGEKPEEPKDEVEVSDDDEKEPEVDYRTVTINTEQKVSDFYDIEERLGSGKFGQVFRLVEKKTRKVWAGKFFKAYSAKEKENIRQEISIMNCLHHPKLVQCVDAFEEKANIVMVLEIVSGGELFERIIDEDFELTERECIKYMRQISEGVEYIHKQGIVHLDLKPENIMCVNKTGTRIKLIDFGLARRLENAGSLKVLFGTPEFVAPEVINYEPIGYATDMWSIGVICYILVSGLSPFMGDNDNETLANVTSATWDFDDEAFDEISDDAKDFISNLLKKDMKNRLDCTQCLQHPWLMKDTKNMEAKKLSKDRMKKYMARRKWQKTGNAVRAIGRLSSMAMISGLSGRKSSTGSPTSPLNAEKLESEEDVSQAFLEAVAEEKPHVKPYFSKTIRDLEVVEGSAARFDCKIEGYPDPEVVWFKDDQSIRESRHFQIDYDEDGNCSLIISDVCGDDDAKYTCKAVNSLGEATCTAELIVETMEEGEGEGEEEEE
Test [5] concerns the target Serine/threonine-protein kinase VRK2 (Homo sapiens) (UniProt Q86Y07). Kind of test: Selectivity interaction (KinomeScan (DiscoverX)) EUB0000229b VRK2. The settings on record: at 10 µM.
Test [6] has as its target T2, G protein-coupled receptor kinase 3 (Homo sapiens) (UniProt P35626).
T2 sequence (whole entry): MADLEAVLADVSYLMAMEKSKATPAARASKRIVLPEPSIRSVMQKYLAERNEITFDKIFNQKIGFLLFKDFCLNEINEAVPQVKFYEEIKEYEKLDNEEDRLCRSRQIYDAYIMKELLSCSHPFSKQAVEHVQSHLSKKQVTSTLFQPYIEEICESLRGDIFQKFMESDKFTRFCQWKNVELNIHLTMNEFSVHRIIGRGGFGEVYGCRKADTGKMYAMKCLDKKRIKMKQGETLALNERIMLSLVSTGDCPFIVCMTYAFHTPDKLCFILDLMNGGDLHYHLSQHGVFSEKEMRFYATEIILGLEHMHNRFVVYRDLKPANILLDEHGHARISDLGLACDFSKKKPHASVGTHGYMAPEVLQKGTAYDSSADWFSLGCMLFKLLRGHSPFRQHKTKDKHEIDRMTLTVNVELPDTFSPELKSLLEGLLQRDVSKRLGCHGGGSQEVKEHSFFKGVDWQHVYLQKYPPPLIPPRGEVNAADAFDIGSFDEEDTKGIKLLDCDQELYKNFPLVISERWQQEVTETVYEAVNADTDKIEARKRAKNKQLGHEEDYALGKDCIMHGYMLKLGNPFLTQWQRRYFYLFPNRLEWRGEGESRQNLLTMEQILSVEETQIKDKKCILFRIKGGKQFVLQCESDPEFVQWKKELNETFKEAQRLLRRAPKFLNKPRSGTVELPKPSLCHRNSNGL
Kind of test: Selectivity interaction (KinomeScan (DiscoverX)) EUB0000229b ADRBK2. Particulars: at 10 µM.

The target in test [7] is T3, Receptor-interacting serine/threonine-protein kinase 1 (Homo sapiens) (UniProt Q13546).
T3 sequence (whole entry): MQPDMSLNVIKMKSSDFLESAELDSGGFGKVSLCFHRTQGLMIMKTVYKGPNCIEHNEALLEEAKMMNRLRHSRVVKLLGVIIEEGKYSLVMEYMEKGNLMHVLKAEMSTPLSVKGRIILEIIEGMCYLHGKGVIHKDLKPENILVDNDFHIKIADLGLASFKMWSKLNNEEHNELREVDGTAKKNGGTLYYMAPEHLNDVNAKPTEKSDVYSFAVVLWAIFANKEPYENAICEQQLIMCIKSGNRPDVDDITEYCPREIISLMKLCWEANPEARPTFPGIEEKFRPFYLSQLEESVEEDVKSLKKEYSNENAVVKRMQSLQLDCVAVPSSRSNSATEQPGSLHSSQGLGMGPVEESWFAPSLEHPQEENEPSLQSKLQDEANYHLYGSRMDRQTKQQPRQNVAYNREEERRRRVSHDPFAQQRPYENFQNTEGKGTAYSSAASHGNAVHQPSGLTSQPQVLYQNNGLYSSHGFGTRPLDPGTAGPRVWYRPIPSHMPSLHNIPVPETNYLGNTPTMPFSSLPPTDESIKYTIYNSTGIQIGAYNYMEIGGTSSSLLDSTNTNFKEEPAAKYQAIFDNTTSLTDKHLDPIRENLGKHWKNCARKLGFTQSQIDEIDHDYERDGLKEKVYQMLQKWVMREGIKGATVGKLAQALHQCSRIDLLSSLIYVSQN
Description: Selectivity interaction (KinomeScan (DiscoverX)) EUB0000618a RIPK1. The settings on record: at 10 µM.

Chain of Serine/threonine-protein kinase VRK2 (Homo sapiens) (Q86Y07 whole entry): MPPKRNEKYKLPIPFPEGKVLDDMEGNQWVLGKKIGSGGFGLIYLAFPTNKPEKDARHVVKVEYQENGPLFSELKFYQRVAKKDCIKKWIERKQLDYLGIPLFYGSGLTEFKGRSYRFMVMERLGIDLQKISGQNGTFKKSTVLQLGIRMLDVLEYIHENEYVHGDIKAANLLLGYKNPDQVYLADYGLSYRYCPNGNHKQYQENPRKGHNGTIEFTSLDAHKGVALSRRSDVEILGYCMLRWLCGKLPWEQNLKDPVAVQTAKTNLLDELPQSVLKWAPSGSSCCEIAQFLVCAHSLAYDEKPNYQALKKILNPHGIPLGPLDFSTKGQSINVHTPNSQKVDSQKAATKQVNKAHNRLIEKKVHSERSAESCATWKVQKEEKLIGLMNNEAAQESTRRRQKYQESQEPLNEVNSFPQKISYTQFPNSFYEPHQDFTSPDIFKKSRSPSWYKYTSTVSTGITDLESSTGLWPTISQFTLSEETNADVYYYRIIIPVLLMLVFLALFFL
Chain of Ribosomal protein S6 kinase beta-1 (P23443 whole entry, looked up): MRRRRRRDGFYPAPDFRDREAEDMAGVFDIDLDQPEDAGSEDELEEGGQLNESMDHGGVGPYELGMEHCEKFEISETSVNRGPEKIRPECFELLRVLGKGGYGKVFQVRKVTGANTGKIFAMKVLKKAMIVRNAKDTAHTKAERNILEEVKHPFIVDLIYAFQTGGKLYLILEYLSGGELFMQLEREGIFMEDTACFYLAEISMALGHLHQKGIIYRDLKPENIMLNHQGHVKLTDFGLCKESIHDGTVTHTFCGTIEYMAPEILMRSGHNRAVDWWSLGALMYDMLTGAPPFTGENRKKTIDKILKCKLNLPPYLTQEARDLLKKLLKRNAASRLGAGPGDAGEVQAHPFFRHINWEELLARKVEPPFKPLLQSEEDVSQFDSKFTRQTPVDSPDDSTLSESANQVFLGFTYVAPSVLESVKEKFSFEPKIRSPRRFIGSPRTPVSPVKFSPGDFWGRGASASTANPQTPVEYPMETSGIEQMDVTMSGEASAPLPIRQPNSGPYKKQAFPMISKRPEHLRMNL
Chain of Mast/stem cell growth factor receptor Kit (Homo sapiens), P10721 [D816H] (P10721 whole entry D816H): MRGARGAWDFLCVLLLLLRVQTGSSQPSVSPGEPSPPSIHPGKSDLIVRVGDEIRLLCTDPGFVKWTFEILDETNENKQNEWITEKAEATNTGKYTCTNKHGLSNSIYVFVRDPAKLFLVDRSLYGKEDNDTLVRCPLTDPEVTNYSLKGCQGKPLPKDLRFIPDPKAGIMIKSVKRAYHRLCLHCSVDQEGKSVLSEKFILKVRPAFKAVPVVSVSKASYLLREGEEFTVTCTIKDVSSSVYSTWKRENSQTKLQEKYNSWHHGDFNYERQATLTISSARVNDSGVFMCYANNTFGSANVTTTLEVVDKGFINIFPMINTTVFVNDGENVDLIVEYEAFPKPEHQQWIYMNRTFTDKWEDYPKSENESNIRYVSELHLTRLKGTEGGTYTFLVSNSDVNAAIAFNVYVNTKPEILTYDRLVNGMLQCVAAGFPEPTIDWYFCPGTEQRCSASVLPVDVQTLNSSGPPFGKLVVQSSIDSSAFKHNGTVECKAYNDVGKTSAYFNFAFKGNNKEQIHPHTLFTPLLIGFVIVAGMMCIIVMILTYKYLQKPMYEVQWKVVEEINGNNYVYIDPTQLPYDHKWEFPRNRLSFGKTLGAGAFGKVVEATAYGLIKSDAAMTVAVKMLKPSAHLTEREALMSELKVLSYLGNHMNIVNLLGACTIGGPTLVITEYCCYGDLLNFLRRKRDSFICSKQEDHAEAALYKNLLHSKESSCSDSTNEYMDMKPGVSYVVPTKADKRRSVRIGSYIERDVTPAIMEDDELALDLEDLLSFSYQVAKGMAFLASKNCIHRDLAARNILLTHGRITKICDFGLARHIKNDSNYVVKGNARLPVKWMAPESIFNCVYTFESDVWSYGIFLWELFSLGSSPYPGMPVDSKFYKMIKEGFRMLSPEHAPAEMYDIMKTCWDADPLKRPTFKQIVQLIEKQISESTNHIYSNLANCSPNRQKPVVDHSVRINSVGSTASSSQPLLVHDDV

As to `C=CC(=O)Nc1cccc(C(=O)Nc2ccc(Nc3cc(-c4[nH]c(SC)nc4C)ccn3)cc2)c1`, the % of control in test [1] (at 1 µM) was found to be 110%; in test [1] (at 5 µM), 111%. `Cc1cc([C@@H](C)Nc2ccccc2C(=O)O)c2nc(N3CCOCC3)cc(=O)n2c1` [AZD-6482] gave a % of control in test [2] of 88%.

Consider `CN(C)CCOc1ccc(-c2nc(-c3ccncc3)c(-c3ccc4c(c3)CC/C4=N\O)[nH]2)cc1`, for which the % of control in test [3] was determined as 85%. As to `C=CC(=O)Nc1cc(-n2c(=O)ccc3cnc4ccc(-c5ccc(NS(C)(=O)=O)cc5)cc4c32)ccc1C`, the % of control in test [4] (at 1 µM) was 90%; in test [4] (at 10 µM), 100%. As to `COc1cc(N(C)c2ccnc3ccc(C(F)(F)F)cc23)cc(OC)c1OC`, the % binding was 85% in test [5] and 43% in test [6]. Molecule `O[C@H]1CC[C@H](Nc2ncc3nc(Nc4c(F)cc(F)cc4F)n([C@H]4CCOC4)c3n2)CC1` had a % of control in test [7] of 100%.
